Test results: patent US9617517B2, “Small chemical compound which promotes induction of differentiation of stem cells into insulin-producing cells and method for inducing differentiation of stem cells into insulin-producing cells using said small chemical compound” (NATIONAL UNIVERSITY CORPORATION KUMAMOTO UNIVERSITY, priority 2011, dated 2017)
Where a name gives a salt, the structure may show the parent alone.

Test system: mouse ES cells (Pdx1/GFP)
Assay: Differentiation of mouse ES cells into insulin positive cells on nano fiber plate, immunostaining and quantitative image analysis
Format: cell-based
Conditions: for effect on differentiation into insulin-expressing cells: compound added d11-d17, insulin staining d17 (FIG. 4, 5, 7, 8, 10); for Relative value of Ins positive cells: number of cells with no compound = 1, concentration of each compound (μM), added d11, d13, d15, analysed d17; for hit confirmed by dose-responsiveness: 0.08 to 10 μM, SK7 ES cells; for induction of the differentiation of stem cells into insulin-producing cells: similar separate experiments; for number of Pdx1/GFP positive cells / number of insulin positive cells: 0 to 10 μM added from d11, counted d17 (FIG. 14)
Text: Two ES cell lines, one expressing green fluorescent protein (GFP) under the control of insulin 1 promoter, designed ING (Higuchi Y., Shiraki N., Yamane K, Qin Z., Mochitate K., Araki K., Senokuchi K., Yamagata K., Hara M., Kume K., and Kume S., Synthesized basement membranes direct the differentiation of mouse embryonic stem cells into pancreatic lineages. J. Cell Science, 123, 2733-2742, 2010), and the other one expressing GFP under the control of Pdx1 promoter, designated SK7 (Shiraki N, Yoshida T, Araki K, et al. Guided differentiation of embryonic stem cells into Pdx1-expressing regional-specific definitive endoderm. Stem Cells. 2008; 26:874-885), were used. Both cell lines were maintained on mouse embryonic fibroblast (MEF) feeders in Glasgow minimum essential medium (Invitrogen) containing 1000 units/ml leukemia inhibitory factor (LIF; Chemicon), 15% Knocked-out Serum Replacement (KSR; Gibco), 1% fetal bovine serum (FBS; Hyclone), 100 μM nonessential amino acids (NEAA; Invitrogen), 2 mM L-glutamine (L-Gln; Invitrogen), 1 mM sodium pyruvate (Invitrogen), 50 units/ml penicillin and 50 μg/ml streptomycin (PS; Invitrogen) and 100 μM β-mercaptoethanol (β-ME; Sigma), as ES maintenance medium.
For the differentiation studies, ES cells were plated at 5,000 cells per well in Corning 96 well plate with Ultra-Web Synthetic Polyamine Surface (#3873XX1, Corning Coster, Cambridge, Miss.), and cultured. The cells were cultured in Dulbecco's Modified Eagle Medium (DMEM: Invitrogen, Glasgow, UK) containing 4500 mg/L glucose, supplemented with NEAA, L-Gln, PS, β-ME, 10 μg/ml insulin (Sigma-Aldrich), 5.5 μg/ml transferrin (Sigma-Aldrich), 6.7 pg/ml selenium (Sigma-Aldrich), and 0.25% Albmax (Invitrogen), 10 ng/mL recombinant human activin-A (R&D Systems, Minneapolis, Minn.), 5 ng/mL; recombinant human bFGF for 7 days (d1-d7) (I of FIG. 1). And then, the medium was changed to RPMI 1640 medium (Invitrogen) containing 2000 mg/L glucose (Sigma, St Louis, Mo.), 1 μM Retinoic acid (Sigma-Aldrich), 50 ng/ml Human Recombinant Fibroblast Growth Factor-10 (Peprotech, Rocky Hill, N.J.), B27 SUPPLEMENT (Invitrogen) and 0.25 μM 3-Keto-N-(aminoethyl-aminocaproyl-dihydrocinnamoyl) cyclopamine Shh Signaling Antagonist II (Calbiochem, San Diego, Calif.) on d7 to d11 (II of FIG. 1). Finally, the medium was switched to DMEM containing 1000 mg/L glucose supplemented with NEAA, L-Gln, PS, β-ME, 10 μg/ml insulin (Sigma-Aldrich), 5.5 μg/ml transferrin (Sigma-Aldrich), 6.7 pg/ml selenium (Sigma-Aldrich), 0.25% Albmax (Invitrogen) and 10 mM nicotinamide (Sigma-Aldrich) on d11 to d17 (III of FIG. 1). Media were replaced every 2 days with fresh medium and growth factors until d17.
All tested small chemical compounds were solved in dimethyl sulfoxide (DMSO) at given concentration. Compounds were added on d11, d13 and d15 in a medium. Final concentration of DMSO was adjusted at 1.0% in all experiments for compounds.
After 17 days cell culture, cultured ES cells were fixed in 4% paraformaldehyde in PBS for 30 min at room temperature, and rinsed several times with PBS. Then, cells were incubated in the added diluted primary antibody in 20% Blocking One (Nacalai tesque, Tokyo, Japan) in PEST (0.1% Tween-20 in PBS) in a humidified chamber for overnight at 4° C. After washing the cells in PBST, cells were incubated with the secondary antibody in 20% Blocking One for 2 hr at room temperature in dark. After washing off the secondary antibody in PBST, cells were counterstained with […] (DAPI) (Roche Diagnostics). The following antibodies were used as First antibodies: Rabbit anti-GFP (MBL International Corp., Woburn, Mass.), Mouse anti-Insulin (Sigma). The following antibodies were used as Secondary antibodies: Alexa 568-conjugated, Alexa 488-conjugated antibodies (Invitrogen) Cells were counterstained with DAPI (Roche Diagnotics, Basel, Switzerland).

SMILES	effect on differentiation into insulin-expressing cells	induction of the differentiation of stem cells into insulin-producing cells	other results
N[C@@H](Cc1c[nH]c2ccc(O)cc12)C(=O)O [5HTP, 5-hydroxytryptophan]	the same effect		
CO[C@@H]1[C@@H]2OP(=O)(O)OC[C@H]2O[C@H]1n1c(Sc2ccc(Cl)cc2)nc2c(N)ncnc21 [8-CPT-2-Me-cAMP]			Relative value of Ins positive cells: 3.7
C[N+](C)(C)CCOC(N)=O [Carbachol, carbachol]	increased insulin positive cells		
C[C@@](Cc1ccc(O)c(O)c1)(NN)C(=O)O [Carbidopa, carbidopa]	the same effect		
CN1CC[C@@]2(C)c3cc(O)ccc3N(C)[C@@H]12.O=C(O)/C=C/C(=O)O [Eseroline fumarate salt, eseroline fumarate]	increased insulin positive cells		hit confirmed by dose-responsiveness: positive; Relative value of Ins positive cells: 1.8
Nc1nc2ncc(CNc3ccc(C(=O)N[C@@H](CCC(=O)O)C(=O)O)cc3)nc2c(=O)[nH]1 [Folic acid, folic acid]			hit confirmed by dose-responsiveness: positive
COc1cc2c(cc1OC)-c1cc3ccc(OC)c(OC)c3c[n+]1CC2 [Palmatine chloride, palmatine chloride]	increased insulin positive cells		hit confirmed by dose-responsiveness: positive
C#CCN(C)Cc1ccccc1 [Pargyline, pargyline hydrochloride]		induce the differentiation of stem cells into insulin-producing cells	effect on differentiation of Pdx1 positive cells into insulin-producing cells (1 μM Pargyline (FIG. 6, 7)): disturbs the differentiation of Pdx1 positive cells into insulin-producing cells; effect on Pdx1 positive pancreatic precursor cells (reserpine 0.63 μM, Pargyline 1 μM (FIG. 6, 7)): without influencing the ratio of Pdx1-expressing cells; effect of 1 μM Pargyline on differentiation in presence of reserpine (with 0.63 μM reserpine): deactivated
C[C@](N)(Cc1ccc(O)cc1)C(=O)O [alpha- Methyltyrosine, α-methyltyrosine]	the same effect		
O=C(CCCN1CCN(c2ccccn2)CC1)c1ccc(F)cc1 [azaperone]		induce the differentiation of stem cells into insulin-producing cells	
CN(C)CCC(c1ccc(Cl)cc1)c1ccccn1 (stereo not shown) [chlorpheniramine maleate]		induce the differentiation of stem cells into insulin-producing cells	
CN/C(=N/CCSCc1nc[nH]c1C)NC#N [cimetidine]		induce the differentiation of stem cells into insulin-producing cells	
CN(C)CCCSC(=N)N [dimaprit dihydrochloride]		induce the differentiation of stem cells into insulin-producing cells	
NCCc1ccc(O)c(O)c1 [dopamine]	suppressed the differentiation of pancreas in a dose-dependent manner		effect on insulin positive cells (0.1 μM dopamine (FIG. 11B)): decreased insulin positive cells; effect on enhancement effect of dBu-cAMP (0.1 μM dopamine with 0.6 μM dBu-cAMP (FIG. 11B)): scarcely influenced; effect on increase of insulin-expressing cells mediated by reserpine (0.1 μM dopamine with 0.6 μM reserpine (FIG. 11B)): inhibited completely; concentration inhibiting completely the differentiation of β cells (FIG. 8): ≥ 100 nM
Cc1c2ccncc2c(C)c2c1[nH]c1ccccc12 [ellipticine]			hit confirmed by dose-responsiveness: positive
COCCCC/C(=N\OCCN)c1ccc(C(F)(F)F)cc1 [fluvoxamine maleate]		induce the differentiation of stem cells into insulin-producing cells	
C[C@@H]1C(=O)O[C@H]2C[C@@]34[C@H]5C[C@@H](C(C)(C)C)[C@]36[C@@H](OC(=O)[C@@H]6O)O[C@@]4(C(=O)O5)[C@]21O [ginkgolide A]		induce the differentiation of stem cells into insulin-producing cells	
NCCc1c[nH]cn1 [histamine]			number of Pdx1/GFP positive cells: did not vary; number of insulin positive cells: decreased in a concentration-dependent manner
OCCOCCN1CCN(C(c2ccccc2)c2ccc(Cl)cc2)CC1 (stereo not shown) [hydroxyzine dihydrochloride]		induce the differentiation of stem cells into insulin-producing cells	
Cc1nccn1CC1CCc2c(c3ccccc3n2C)C1=O (stereo not shown) [ondansetron hydrochloride]		induce the differentiation of stem cells into insulin-producing cells	
CCN(CC)CCCC(C)Nc1c2ccc(Cl)cc2nc2ccc(OC)cc12 (stereo not shown) [quinacrine dihydrochloride dihydrate]		induce the differentiation of stem cells into insulin-producing cells	
NCCc1c[nH]c2ccc(O)cc12 [serotonin]			number of Pdx1/GFP positive cells: did not vary; number of insulin positive cells: decreased in a concentration-dependent manner
